Laboratory results reported in US20050197350A1, “Novel quinoline, tetrahydroquinazoline, and pyrimidine derivatives and methods of treatment related to the use thereof” (TAISHO PHARMACEUTICAL CO., LTD., priority 2003, published 2005).

The compounds below were run on MCH receptors (assay: MCH receptor activity class (method not given)). Details: activity class per percent of control at 10^-7 M or IC50.
For COc1ccc(CN[C@H]2CC[C@@H](Nc3cc(N(C)C)c4ccccc4n3)CC2)c(OC)c1 [compound 1094], the class was 3 (Class 3 The value of percent of control at 10^−7 M was more than 60% or the value of IC50 was more than 200 nM.). For COc1ccc(CN[C@H]2CC[C@@H](Nc3cc(N(C)C)c4ccccc4n3)CC2)c(OC)c1OC [compound 1095], the class was 3 (Class 3 The value of percent of control at 10^−7 M was more than 60% or the value of IC50 was more than 200 nM.). COc1cc(CN[C@H]2CC[C@@H](Nc3cc(N(C)C)c4ccccc4n3)CC2)cc(OC)c1O [compound 1096] was tested, and the class was 3 (Class 3 The value of percent of control at 10^−7 M was more than 60% or the value of IC50 was more than 200 nM.). With CCOc1cc(CN[C@H]2CC[C@@H](Nc3cc(N(C)C)c4ccccc4n3)CC2)ccc1OC [compound 1097] the class was 3 (Class 3 The value of percent of control at 10^−7 M was more than 60% or the value of IC50 was more than 200 nM.). In the case of CN(C)c1cc(N[C@H]2CC[C@@H](NCc3c[nH]nc3-c3ccc(C(F)(F)F)cc3)CC2)nc2ccccc12 [compound 1098], the class is reported as 3 (Class 3 The value of percent of control at 10^−7 M was more than 60% or the value of IC50 was more than 200 nM.). In the case of COc1cc(CN[C@H]2CC[C@@H](Nc3cc(N(C)C)c4ccccc4n3)CC2)cc(OC)c1OC [compound 1099], the class is reported as 3 (Class 3 The value of percent of control at 10^−7 M was more than 60% or the value of IC50 was more than 200 nM.). For COc1cc(CN[C@H]2CC[C@@H](Nc3cc(N(C)C)c4ccccc4n3)CC2)cc(OC)c1 [compound 1101], the class was 3 (Class 3 The value of percent of control at 10^−7 M was more than 60% or the value of IC50 was more than 200 nM.). COc1cc(CN[C@H]2CC[C@@H](Nc3cc(N(C)C)c4ccccc4n3)CC2)cc(I)c1O [compound 1102] was tested, and the class was 3 (Class 3 The value of percent of control at 10^−7 M was more than 60% or the value of IC50 was more than 200 nM.). In the case of Cc1cc(CN[C@H]2CC[C@@H](Nc3cc(N(C)C)c4ccccc4n3)CC2)cc(C)c1O [compound 1103], the class is reported as 3 (Class 3 The value of percent of control at 10^−7 M was more than 60% or the value of IC50 was more than 200 nM.). COc1cccc(CN[C@H]2CC[C@@H](Nc3cc(N(C)C)c4ccccc4n3)CC2)c1 [compound 1104] was tested, and the class was 3 (Class 3 The value of percent of control at 10^−7 M was more than 60% or the value of IC50 was more than 200 nM.). CN(C)c1cc(N[C@H]2CC[C@@H](NCc3ccc(F)c(Br)c3)CC2)nc2ccccc12 [compound 1105] was tested, and the class was 3 (Class 3 The value of percent of control at 10^−7 M was more than 60% or the value of IC50 was more than 200 nM.). Cc1ccc2occ(CN[C@H]3CC[C@@H](Nc4cc(N(C)C)c5ccccc5n4)CC3)c(=O)c2c1 [compound 1107] was tested, and the class was 3 (Class 3 The value of percent of control at 10^−7 M was more than 60% or the value of IC50 was more than 200 nM.). For Cc1cc(C)c2occ(CN[C@H]3CC[C@@H](Nc4cc(N(C)C)c5ccccc5n4)CC3)c(=O)c2c1 [compound 1108], the class was 3 (Class 3 The value of percent of control at 10^−7 M was more than 60% or the value of IC50 was more than 200 nM.). With Cc1cc(CN[C@H]2CC[C@@H](Nc3cc(N(C)C)c4ccccc4n3)CC2)c(C)n1-c1ccccc1 [compound 1109] the class was 3 (Class 3 The value of percent of control at 10^−7 M was more than 60% or the value of IC50 was more than 200 nM.). With CC(CN[C@H]1CC[C@@H](Nc2cc(N(C)C)c3ccccc3n2)CC1)c1ccccc1 (stereo partly drawn) [compound 1110, N4,N4-dimethyl-N2-{cis-4-[(2-phenylpropyl)amino]cyclohexy}quinoline-2,4-diamine] the class was 3 (Class 3 The value of percent of control at 10^−7 M was more than 60% or the value of IC50 was more than 200 nM.). For CCCCC/C(=C\c1ccccc1)CN[C@H]1CC[C@@H](Nc2cc(N(C)C)c3ccccc3n2)CC1 [compound 1111], the class was 3 (Class 3 The value of percent of control at 10^−7 M was more than 60% or the value of IC50 was more than 200 nM.). In the case of COc1ccccc1/C=C/CN[C@H]1CC[C@@H](Nc2cc(N(C)C)c3ccccc3n2)CC1 [compound 1112], the class is reported as 3 (Class 3 The value of percent of control at 10^−7 M was more than 60% or the value of IC50 was more than 200 nM.). CN(C)c1cc(N[C@H]2CC[C@@H](NCc3coc4ccc(Cl)cc4c3=O)CC2)nc2ccccc12 [compound 1113] was tested, and the class was 3 (Class 3 The value of percent of control at 10^−7 M was more than 60% or the value of IC50 was more than 200 nM.). For CN(C)c1cc(N[C@H]2CC[C@@H](NCc3cncc(-c4ccc(F)cc4)c3)CC2)nc2ccccc12 [compound 1114], the class was 3 (Class 3 The value of percent of control at 10^−7 M was more than 60% or the value of IC50 was more than 200 nM.). In the case of CCOC(=O)c1[nH]c2cc(Cl)cc(Cl)c2c1CN[C@H]1CC[C@@H](Nc2cc(N(C)C)c3ccccc3n2)CC1 [compound 1115], the class is reported as 1 (Class 1: The value of percent of control at 10^−7 M was less than 40% or the value of IC50 was less than 50 nM.). With COC(=O)c1ccccc1Sc1nc2sccn2c1CN[C@H]1CC[C@@H](Nc2cc(N(C)C)c3ccccc3n2)CC1 [compound 1116] the class was 3 (Class 3 The value of percent of control at 10^−7 M was more than 60% or the value of IC50 was more than 200 nM.). With CN(C)c1cc(N[C@H]2CC[C@@H](NCc3c[nH]nc3-c3ccc(F)cc3)CC2)nc2ccccc12 [compound 1117] the class was 3 (Class 3 The value of percent of control at 10^−7 M was more than 60% or the value of IC50 was more than 200 nM.). For CSc1ccc(CN[C@H]2CC[C@@H](Nc3cc(N(C)C)c4ccccc4n3)CC2)cc1 [compound 1118], the class was 3 (Class 3 The value of percent of control at 10^−7 M was more than 60% or the value of IC50 was more than 200 nM.). In the case of CN(C)c1cc(N[C@H]2CC[C@@H](NCc3cccc4ccccc34)CC2)nc2ccccc12 [compound 1119], the class is reported as 3 (Class 3 The value of percent of control at 10^−7 M was more than 60% or the value of IC50 was more than 200 nM.). COc1cc(CN[C@H]2CC[C@@H](Nc3cc(N(C)C)c4ccccc4n3)CC2)ccc1O [compound 1120] was tested, and the class was 3 (Class 3 The value of percent of control at 10^−7 M was more than 60% or the value of IC50 was more than 200 nM.). In the case of CN(C)c1cc(N[C@H]2CC[C@@H](NCc3ccc(F)c(Cl)c3)CC2)nc2ccccc12 [compound 1121], the class is reported as 3 (Class 3 The value of percent of control at 10^−7 M was more than 60% or the value of IC50 was more than 200 nM.). In the case of COc1cccc(OC)c1CNC[C@H]1CC[C@@H](Nc2cc(N(C)C)c3ccccc3n2)CC1 [compound 1122], the class is reported as 2 (Class 2: The value of percent of control at 10^−7 M was from 40% to 60% or the value of IC′50 was from 50 nM to 200 nM.). With CCOc1ccccc1CNC[C@H]1CC[C@@H](Nc2cc(N(C)C)c3ccccc3n2)CC1 [compound 1123] the class was 2 (Class 2: The value of percent of control at 10^−7 M was from 40% to 60% or the value of IC′50 was from 50 nM to 200 nM.). With CN(C)c1cc(N[C@H]2CC[C@@H](CNCc3c[nH]c4ccccc34)CC2)nc2ccccc12 [compound 1124] the class was 3 (Class 3 The value of percent of control at 10^−7 M was more than 60% or the value of IC50 was more than 200 nM.). With COc1ccc(OC)c(CNC[C@H]2CC[C@@H](Nc3cc(N(C)C)c4ccccc4n3)CC2)c1 [compound 1125] the class was 3 (Class 3 The value of percent of control at 10^−7 M was more than 60% or the value of IC50 was more than 200 nM.). With COc1ccc(CNC[C@H]2CC[C@@H](Nc3cc(N(C)C)c4ccccc4n3)CC2)c2ccccc12 [compound 1126] the class was 2 (Class 2: The value of percent of control at 10^−7 M was from 40% to 60% or the value of IC′50 was from 50 nM to 200 nM.). For COc1ccc2[nH]cc(CNC[C@H]3CC[C@@H](Nc4cc(N(C)C)c5ccccc5n4)CC3)c2c1 [compound 1127], the class was 3 (Class 3 The value of percent of control at 10^−7 M was more than 60% or the value of IC50 was more than 200 nM.). With COc1ccc2ccccc2c1CNC[C@H]1CC[C@@H](Nc2cc(N(C)C)c3ccccc3n2)CC1 [compound 1128] the class was 3 (Class 3 The value of percent of control at 10^−7 M was more than 60% or the value of IC50 was more than 200 nM.). For COc1cc(Br)cc(CNC[C@H]2CC[C@@H](Nc3cc(N(C)C)c4ccccc4n3)CC2)c1O [compound 1129], the class was 2 (Class 2: The value of percent of control at 10^−7 M was from 40% to 60% or the value of IC′50 was from 50 nM to 200 nM.). For CN(C)c1cc(N[C@H]2CC[C@@H](CNCc3c[nH]c4ccc(Br)cc34)CC2)nc2ccccc12 [compound 1130], the class was 2 (Class 2: The value of percent of control at 10^−7 M was from 40% to 60% or the value of IC′50 was from 50 nM to 200 nM.). With COc1ccc(CNC[C@H]2CC[C@@H](Nc3cc(N(C)C)c4ccccc4n3)CC2)c(OC)c1 [compound 1131] the class was 3 (Class 3 The value of percent of control at 10^−7 M was more than 60% or the value of IC50 was more than 200 nM.). With COc1ccc(CNC[C@H]2CC[C@@H](Nc3cc(N(C)C)c4ccccc4n3)CC2)c(OC)c1OC [compound 1132] the class was 3 (Class 3 The value of percent of control at 10^−7 M was more than 60% or the value of IC50 was more than 200 nM.). For COc1cc(CNC[C@H]2CC[C@@H](Nc3cc(N(C)C)c4ccccc4n3)CC2)cc(OC)c1O [compound 1133], the class was 3 (Class 3 The value of percent of control at 10^−7 M was more than 60% or the value of IC50 was more than 200 nM.). With CCOc1cc(CNC[C@H]2CC[C@@H](Nc3cc(N(C)C)c4ccccc4n3)CC2)ccc1OC [compound 1134] the class was 3 (Class 3 The value of percent of control at 10^−7 M was more than 60% or the value of IC50 was more than 200 nM.). For CN(C)c1cc(N[C@H]2CC[C@@H](CNCc3c[nH]nc3-c3ccc(C(F)(F)F)cc3)CC2)nc2ccccc12 [compound 1135], the class was 3 (Class 3 The value of percent of control at 10^−7 M was more than 60% or the value of IC50 was more than 200 nM.). With COc1cc(CNC[C@H]2CC[C@@H](Nc3cc(N(C)C)c4ccccc4n3)CC2)cc(OC)c1OC [compound 1136] the class was 3 (Class 3 The value of percent of control at 10^−7 M was more than 60% or the value of IC50 was more than 200 nM.). COc1cc(CNC[C@H]2CC[C@@H](Nc3cc(N(C)C)c4ccccc4n3)CC2)cc(OC)c1 [compound 1138] was tested, and the class was 3 (Class 3 The value of percent of control at 10^−7 M was more than 60% or the value of IC50 was more than 200 nM.).
